≈ marks a conversion by molar mass, not a printed value.
Key:
[1] = Hepatoprotective activity, CCl4 liver damage (AlAT); assay type: in vivo, rats
Protocol: CCl4 dissolved in 50% olive oil (1 ml/kg) was subcutaneously administrated to rats. Test substances were administrated perorally in a dose of 20 mg/kg 30 minutes before and 7 hours after the CCL4 administration. The activity of alanine-aminotranspherase (AlAT), which is a marker enzyme of liver parenchyma damage, was assessed twenty-four hours later. Reducing of enzyme amount by more than 30% relative to the control group was considered as evidence of hepatoprotective properties of the substance.
Silymarin in a dose of 100 mg/kg was used as a reference agent.

[2] = Antiulcerous action, water immersion stress with immobilization; assay type: in vivo, rats; conditions: 20 mg/kg perorally; for % of animals with ulcers: rats, 4 hours stress, control 100; for % of reducing number of ulcers / % of reducing ulceration index: versus control; for Number of lesions: control 8.3 ± 2.5; for ulceration index: control 10.5 ± 5.7
Protocol: Antiulcerous activity of substances was tested on a model of experimental water immersion stress with immobilization. […] After that, gastric mucous membrane was investigated, number and sizes of ulcers were counted, ulceration index was determined (an average sum of ulcer lengths per one animal in a group).

[3] = system: Herpes virus of the type I (HSV-I/Leningrad/248/88); experiment: Effect on Herpes virus, cytopathogenic action on Vero cells; assay type: cell-based, Herpes Simplex virus; conditions: compound 100 μg/ml; for Quantity of the unchanged cells (number of cells in 100 visual fields): Vero cells, 36 hours, cell control 10000; for percentage of protection of cells from virus: compared to the control of cell culture
Protocol: An antiviral activity was determined with respect to Herpes virus of the type I (HSV-I/Leningrad/248/88) by means of commonly accepted method. Viruses were grown on a continuous culture of Vero cells that have been received from the Bank of Cell Cultures of the Institute of Cytology of the Russian Academy of Science.
A virus in a final concentration of […] and the claimed compounds dissolved in DMSO in final concentrations of 100, 10 and 1 mg/l were added to cells that were grown on the RPMI-1640 medium with 10% fetal calf serum and placed into wells of the 96-well plate. 5 separate wells were used for each of tested concentrations of an agent. The plate was incubated during 60 minutes at 38° C. in a CO2-incubator. After the incubation, the virus was removed and then a fresh medium containing claimed compounds in used concentrations was again introduced.
Results were evaluated basing on presence of cytopathogenic action on the cells after 36 hours of incubation at 38° C. in the CO2-incubator.
The next controls were used in the experiment: • 1. Control of cell culture (capability to grow properly) • 2. Control of the virus (evaluation of capability for reproduction) • 3. Control of an antiviral activity of an antiviral drug Acyclovir • 4. Control of compounds (toxicity of compounds) • 5. Control of a solvent (DMSO) for toxicity.
To estimate a cytopathic action of the virus, a quantity of the unchanged cells was calculated in 100 visual fields formed by a special net of an eyepiece of the inverted microscope.

[4] = system: Human's platelet aggregation; experiment: Antiaggregational properties, ADP-induced platelet aggregation; assay type: cell-based; conditions: 100 μg/ml, ADP […], platelet-enriched human plasma
Description: Human's platelet aggregation was investigated in plasma of healthy 50±3 years donors that was enriched by thrombocytes, by means of aggregometer FRM-1. […] Magnitude of a maximum non-reversible platelet aggregation in the control samples (solvent) was adopted as 100%, and that in tested samples was counted as the percentage compared to the control.

C.trachomatis D323 = experiment: Action on Chlamydia trachomatis in cell culture; assay type: cell-based; conditions: 100 mg/l
Protocol: The antimicrobial activity of the claimed compounds was studied relative to C.trachomatis […], which is a standard strain from the collection of the chair of microbiology of St. Petersburg State Pavlov Medical University. […] Cell cultures McCoy and L929 obtained from the Institute of Cytology of RAS were used in this work. Cells were grown in flasks made of neutral glass in the medium RPMI-1640 with the addition of 10% of fetal calf serum. The test was performed in glass (non-toxic) flat-bottom flasks with cover glasses. The cells were introduced into the medium in the final concentration of […]. […] Simultaneously, tested compounds in a final concentration of 100 mg/l were added to the cells. The sample was centrifuged at 2400 G during 60 minutes at room temperature and incubated at 37° C. for 2 hours. […] The samples were doubled using the medium without cycloheximide so as to exclude its effect on the investigated compounds. The samples were incubated in a CO2-incubator for 48 hours. […] The effect of the action of substance was determined by analysis of the monolayer state and number of cells with CPI when compared with the control (cell culture infected with C.trachomatis […]); in doing so, the number of unchanged cells, that were counted in 100 visual fields obtained using the special net of the microscope eyepiece, was taken into consideration. […] Control of cell culture: morphology of cells and state of monolayer correspond to the given type of the cells; control of chlamydia growth in the cell culture: presence of CPI in the monolayer; control of action of standard antimicrobial agent: reduction of number of CPI in the monolayer as compared to the previous control; control of toxicity of the claimed compounds: toxicity is absent; control of action of solvents: toxic action on cells is absent.

[5] = Psychodepressive activity, behavioral score; assay type: in vivo, mice; conditions: per oral 300 mg/kg, one hour after dosing; total 60, less than 40 significant
Protocol: Each parameter scores 2 points for an each mouse that had unchanged behavior. The total point sum was 60 (2×10×3 mice). Reducing score to less than 40 one hour after dosing with a substance per oral (300 mg/kg) denoted significant behavioral depression. Haloperidol was utilized as a reference agent.

[6] = Antioxidant action, riboflavine chemiluminescence; assay type: biochemical; conditions: solvent water, phosphate buffer pH 9.1
Description: To assess a general antioxidant activity the method of riboflavine chemiluminescence was used. The test substance was introduced into a system consisted of phosphate buffer (pH 9.1), solution of riboflavine, and solution of bivalent iron sulfate. Chemiluminescence was initiated by 0.1% solution of hydrogen peroxide and registered by means of luminometer. […] Ascorbic acid was used as a reference agent.

[7] = Hypoglycemic activity after glucose load; assay type: in vivo, mice; conditions: 100 mg/kg perorally, glucose 1000 mg/kg s.c.; for Glucose in blood: after one hour, glucose control 8.26 ± 0.50
Protocol: Test substance (100 mg/kg) was perorally administrated to fasted mice, and, immediately after that, solution of glucose (1000 mg/kg) was administrated subcutaneously. Glucose content in blood was determined in a hour by the orthotoluidine method. Reducing of glucose level by more than 20% relative to control animals indicated hypoglycemic properties. Glibenclamide (I mg/kg) was utilized as a reference agent.

[8] = Psychostimulating activity, symptom score; assay type: in vivo, mice; conditions: tested substances perorally 300 mg/kg, one hour after; maximum 30 points, more than 12 significant
[9] = system: cholesterol synthesis by human's fibroblasts; experiment: Inhibition of cholesterol synthesis in human's fibroblasts; assay type: cell-based; conditions: 400 ng/ml, [2-14C] acetate incorporation, 4 hours
Protocol: Influence of the substance (400 ng/ml) on cholesterol synthesis by human's fibroblasts was investigated. […] The spots corresponding to cholesterol were removed from a plate to a vial and then were coated with scintillation liquid; after that radioactivity was measured expressed as pulse/min/mg of cell protein. Lovastatin taken in the same concentration as the tested substance was utilized as a reference agent.

[10] = system: primary culture of human lymphocytes (IFN-α production); experiment: Interferon-inducing activity in primary culture of human lymphocytes; assay type: cell-based
Protocol: Interferon synthesis induction caused by the claimed compounds was conducted on a primary culture of human lymphocytes (it is these cells in a human organism that are the main producers of interferons). To obtain lymphocyte culture, fresh blood (within 12 hours after sampling) from healthy donors (not of group II) was used. To separate lymphocytes, heparinized blood obtained from healthy donor was centrifuged in a density gradient of ficoll-verografin of […] in order to extract a fraction of immunocompetent cells. This fraction was selected and diluted with the nutrient medium RPMI-1640, containing 5% of fetal calf serum, 0.3 mg/ml of L-glutamin, 100 un/ml of penicillin, and […] of streptomycin. The concentration of lymphocytes was considered after dying them with methylene blue and calculation of cell number in Goryaev chamber. Initial solutions of the claimed compounds were diluted with the nutrient medium RPMI-1640 so that the final concentrations of the compounds, which were obtained after introduction of lymphocyte suspension, constituted the raw: 100 μg/ml, 10 μg/ml, 1 μg/ml. The final concentration of lymphocytes in the induction mixture was 3×10^6 cell/ml.
In parallels to the test samples the following controls were done: • 1). Control of spontaneous production of interferons (IFN) by lymphocytes. • 2). […] Control of spontaneous production of interferons in presence of DMSO taken in an amount corresponding to the test samples.
Control and test samples were incubated for 24 hours at the temperature of 37° C. After incubation, the samples were centrifuged at 2,000 G to deposit cell elements, and IFN-containing supernatant was separate out of samples; then the supernatant was analyzed for the quantitative content of IFN. Cell deposition was resuspended in the previous volume of nutrient medium, coloured with vital dye trypan blue, and cell number was counted in the Goryaev chamber (as described above) to determine cytotoxic action of the compounds. The quantitative determination of content of IFN in control and test samples was conducted using the immunoenzyme test system Pro Con IF2 Plus, that is intended for determination of IFN-α, which is produced by TOO “Protein contour”. The solid-phase immunoenzyme method, utilizing horse radish peroxidase as an indicator enzyme, was used to determine the quantity of interferon in the samples. Activity of the bonded peroxidase was measured using an automatic photometer for microplates with a microprocessor at the wavelength of 450 nm.
Based on the obtained results, a calibrating curve was formed, which allows to obtain data expressed in international units (IU) of activity, using the microprocessor of the automatic photometer. The results of the analysis are expressed in IU of activity of IFN per ml in the given induction system, which contains 3×10^4 lymphocyte/ml. Each test and control point was investigated in four parallels.
Controls of immunoenzyme reaction: • 1. Control of DMSO with a nutrient medium. • 2. Control of system components (according to an instruction).
The obtained data were undergone a statistical analysis using t-criterion, and calculation of the confident interval of probability at p=0.05 was carried out. Coincidence of results in the parallel tests was analyzed.

[11] = Determination of maximal tolerable dose; assay type: in vivo; conditions: oral administration, mice, observed 72 hours; 300 was the maximally utilized one
Protocol: Tested substance was introduced perorally (in dose of 300 mg/kg) through a gastric tube or intraperitoneally (in dose of 100 mg/kg) to no-breed white mice with mass 18-20 g (each tested group consisted of 3 males and 3 females). Then the mouse state was observed during 72 hours. Absence of symptoms characteristic of toxic effects, or absence of animal death during the given time allows to make a conclusion that the toxicity of the test substance is low. If acute toxicity effects are observed, the dose is reduced to find maximal tolerable dose.

SMILES | % of animals with ulcers [2] [%] | % of reducing number of ulcers [2] [%] | % of reducing ulceration index [2] [%] | Number of lesions [2] | ulceration index [2] | Quantity of the unchanged cells (number of cells in 100 visual fields) [3] | percentage of protection of cells from virus [3] | % of inhibition of platelet aggregation [4] [%] | IC50, suppressing chemiluminescence by 50% [6] [µg/mL] | % change of glucose relative to glucose control [7] [%] | Glucose in blood [7] [mmol/L] | also measured
O=C1NC(=O)N(c2ccc(F)cc2)C(=O)C1=NO [XXVII] | 67 | −79 | −88 | 1.7 ± 1.3 | 1.3 ± 1.0 | 6500 | (65%) | 24.3 ± 4.8 | 13.00 (≈ 51.8 µM) | −12 | 7.26 ± 0.41 | AlAT ([1]; 20 mg/kg perorally 30 minutes before and 7 hours after CCl4, 24 hours, CCl4 control 0.83 ± 0.21, intact 0.27 ± 0.04): 0.42 ± 0.08 mmol/L/h; % of reducing AlAT ([1]; 20 mg/kg perorally, relative to CCl4 control): −49%; percentage of cell protection from infection (C.trachomatis D323): (65%); Number of unchanged cells (C.trachomatis D323; 48 hours, counted in 100 visual fields, cell control 8.000, infected cells 6.000): 7.300; Point number (behavioral depression) [5]: 31
CN1CCc2cccc3c2[C@H]1Cc1ccc(O)c(O)c1-3 [Apomorphine, reference compound] |  |  |  |  |  |  |  |  |  |  |  | Number of points (psychostimulation) [8]: 19
CC[C@H](C)C(=O)O[C@H]1C[C@@H](C)C=C2C=C[C@H](C)[C@H](CC[C@@H]3C[C@@H](O)CC(=O)O3)[C@H]21 [Lovastatin, reference compound] |  |  |  |  |  |  |  |  |  |  |  | inhibition at 0.4 µg/mL ([9]; Homo sapiens, Fibroblast): 76.4%
O=C1NC(=O)N(c2cccc(C(F)(F)F)c2)C(=O)C1=NO [XXXII] | 100 | −52 | −64 | 4.0 ± 1.3 | 3.8 ± 1.5 | 5000 | (50%) | 64.3 ± 6.2 | 6.40 (≈ 21.2 µM) | −14 | 7.10 ± 0.28 | Content of IFN in induction mixture after 24-hour incubation ([10]; substance 1 mg/l): 12.5 ± 1.0 IU/3 × 10^4 lymph./ml; Content of IFN in induction mixture after 24-hour incubation ([10]; substance 10 mg/l): 77.5 ± 1.5 IU/3 × 10^4 lymph./ml; Content of IFN in induction mixture after 24-hour incubation ([10]; substance 100 mg/l): 126.5 ± 1.6 IU/3 × 10^4 lymph./ml; Maximal tolerable dose, concentration of test substances [11]: 300 mg/kg; % of inhibition of cholesterol synthesis [9]: 23.5%

Reference: patent US7074925B1, “N-substituted derivatives of 5-oxyiminobarbituric acid” (priority 1998, dated 2006)
